In brackets after ≈: the same amount, converted by molar mass.

We go through six compounds from ChEMBL document CHEMBL1134904, “The activity of p-methoxybenzylisothiocyanate against Neisseria gonorrhoeae, Haemophilus ducreyi, and other microorganisms” (Bioorg Med Chem Lett, 2002).

In series [1] the test system is Staphylococcus aureus. Description: The compound was tested for minimal inhibitory concentration against Resistant Staphylococcus aureus. In kind it is functional.
Another series concerns Enterobacter sp. As to the kind of experiment: The compound was tested for minimal inhibitory concentration against Enterobacter sp. The class given is functional.
In series [2] the test system is Pseudomonas aeruginosa. Description: The compound was tested for minimal inhibitory concentration against Pseudomonas aeruginosa. The class given is functional.
Series [3] relates to Neisseria gonorrhoeae. Description: The compound was tested for minimal inhibitory concentration against Neisseria gonorrhoeae. The class given is functional.
Series [4] has as its system Pseudomonas aeruginosa. Description: The compound was tested for minimal inhibitory concentration against Resistant Pseudomonas aeruginosa. In kind it is functional.
The subject of another series is Candida albicans. As to the kind of experiment: The compound was tested for minimal inhibitory concentration against Candida albicans. In kind it is functional.
Series [5] can be described thus: In vitro cellular toxicity was determined at a concentration of 100 uM in Graham cell lines; found to be non toxic at the above concentration. The class given is cell-based.
The next series relates to Escherichia coli. Description: The compound was tested for minimal inhibitory concentration against Escherichia coli. In kind it is functional.
Series [6] concerns Staphylococcus aureus. As to the kind of experiment: The compound was tested for minimal inhibitory concentration against Staphylococcus aureus. The class given is functional.
The next series concerns Bacillus subtilis. Description: The compound was tested for minimal inhibitory concentration against Bacillus subtilis. In kind it is functional.
Series [7] has as its system Neisseria gonorrhoeae. As to the kind of experiment: The compound was tested for minimal inhibitory concentration against Penicillinase producing Neisseria gonorrhoeae (PPNG). In kind it is functional.
For the next series, the system named is [Haemophilus] ducreyi. As to the kind of experiment: The compound was tested for minimal inhibitory concentration against Haemophilus ducreyi. In kind it is functional.
A further series relates to Micrococcus luteus. Description: The compound was tested for minimal inhibitory concentration against Micrococcus luteus. In kind it is functional.

Turning to `COc1ccc(CN=C=S)cc1`, the MIC against Staphylococcus aureus [1] stood at 8 µg/mL (≈ 44.6 µM); in the series on Enterobacter sp. it was 8 µg/mL (≈ 44.6 µM); in the series on Pseudomonas aeruginosa [2], 16 µg/mL (≈ 89.3 µM); in the series on Neisseria gonorrhoeae [3] it was 4 µg/mL (≈ 22.3 µM); in the series on Pseudomonas aeruginosa [4], 16 µg/mL (≈ 89.3 µM); with Candida albicans, 2 µg/mL (≈ 11.2 µM). In addition, the MIC with Escherichia coli worked out at 32 µg/mL (≈ 179 µM); with Staphylococcus aureus [6], 2 µg/mL (≈ 11.2 µM); against Bacillus subtilis it was 32 µg/mL (≈ 179 µM); against Neisseria gonorrhoeae [7], 4 µg/mL (≈ 22.3 µM); in series [Haemophilus] ducreyi it was 64 µg/mL (≈ 357 µM); in the series on Micrococcus luteus it was 8 µg/mL (≈ 44.6 µM). The Toxicity result in series [5] was “Not toxic”.

In the series on Candida albicans, `C[C@@H]1[C@H](O)[C@@H](C)/C=C/C=C/C=C/C=C/C=C/C=C/C=C/[C@H](O[C@@H]2O[C@H](C)[C@@H](O)[C@H](N)[C@@H]2O)C[C@@H]2O[C@](O)(C[C@@H](O)C[C@@H](O)[C@H](O)CC[C@@H](O)C[C@@H](O)CC(=O)O[C@H]1C)C[C@H](O)[C@H]2C(=O)O` (relative stereo) [AMPHOTERICIN B] gave an MIC of 2 µg/mL (≈ 2.16 µM).

As for `CC1(C)S[C@@H]2[C@H](NC(=O)[C@H](N)c3ccccc3)C(=O)N2[C@H]1C(=O)O` [AMPICILLIN], the MIC in the series with Staphylococcus aureus [1] was above 32 µg/mL; with Enterobacter sp., 16 µg/mL (≈ 45.8 µM); in the series on Pseudomonas aeruginosa [2], above 32 µg/mL; in the series with Neisseria gonorrhoeae [3] it was 0.25 µg/mL (≈ 0.715 µM); in the series with Escherichia coli, 8 µg/mL (≈ 22.9 µM); against Staphylococcus aureus [6], 2 µg/mL (≈ 5.72 µM). For the same compound, the MIC was above 32 µg/mL with Bacillus subtilis, above 32 µg/mL in the series with Neisseria gonorrhoeae [7], 2 µg/mL (≈ 5.72 µM) in series [Haemophilus] ducreyi and 2 µg/mL (≈ 5.72 µM) in the series with Micrococcus luteus.

With `O=C(O)c1cn(C2CC2)c2cc(N3CCNCC3)c(F)cc2c1=O` [CIPROFLOXACIN], the MIC was above 32 µg/mL against Staphylococcus aureus [1]; 2 µg/mL (≈ 6.04 µM) with Enterobacter sp.; 0.25 µg/mL (≈ 0.754 µM) against Neisseria gonorrhoeae [3]; above 32 µg/mL with Pseudomonas aeruginosa [4]; 2 µg/mL (≈ 6.04 µM) with Staphylococcus aureus [6]; 2 µg/mL (≈ 6.04 µM) in the series with Bacillus subtilis. Moreover, the minimal inhibitory concentration (MIC) in the series on Neisseria gonorrhoeae [7] was 0.25 µg/mL (≈ 0.754 µM); against Micrococcus luteus, 2 µg/mL (≈ 6.04 µM).

With `C[C@H]1c2cccc(O)c2C(=O)C2=C(O)[C@]3(O)C(=O)C(C(N)=O)=C(O)[C@@H](N(C)C)[C@@H]3[C@@H](O)[C@@H]21.O` [DOXYCYCLINE], the MIC in the series with Staphylococcus aureus [1] was above 32 µg/mL; against Enterobacter sp., 8 µg/mL; against Pseudomonas aeruginosa [2] it was 8 µg/mL; in the series with Neisseria gonorrhoeae [3], 0.5 µg/mL; with Pseudomonas aeruginosa [4], above 32 µg/mL; with Escherichia coli it was 2 µg/mL. Also, the MIC in the series on Staphylococcus aureus [6] was 8 µg/mL; in the series with Bacillus subtilis, 8 µg/mL; with Neisseria gonorrhoeae [7] it was above 32 µg/mL; in series [Haemophilus] ducreyi it was 4 µg/mL; against Micrococcus luteus it was 8 µg/mL.

On to `OC(Cn1cncn1)(Cn1cncn1)c1ccc(F)cc1F` [FLUCONAZOLE], for which the MIC in the series on Candida albicans is 0.25 µg/mL (≈ 0.816 µM).

For orientation: MIC means the smallest concentration in the dilution series that meets the test's criterion for growth inhibition. Low values mean inhibition by little substance, high ones a need for much substance.
